Test results from article PMC12764492, “Therapeutic 6-thio-deoxyguanosine inhibits telomere elongation in cancer cells by inducing a non-productive stalled telomerase complex” (Nature Communications, 2025).

Target: T1, DNA polymerase δ (Pol δ) holoenzyme (Homo sapiens, UniProt P28340)
T1 construct: gene POLD1; recombinant human Pol δ heterotetramer; with other Pol δ subunits (heterotetramer); PCNA
Assay: primer extension by reconstituted Pol δ holoenzyme with 6-thio-dGTP ([…]) replacing dGTP; inserted, not significantly inhibitory
Format: biochemical

T1 sequence (P28340 whole entry): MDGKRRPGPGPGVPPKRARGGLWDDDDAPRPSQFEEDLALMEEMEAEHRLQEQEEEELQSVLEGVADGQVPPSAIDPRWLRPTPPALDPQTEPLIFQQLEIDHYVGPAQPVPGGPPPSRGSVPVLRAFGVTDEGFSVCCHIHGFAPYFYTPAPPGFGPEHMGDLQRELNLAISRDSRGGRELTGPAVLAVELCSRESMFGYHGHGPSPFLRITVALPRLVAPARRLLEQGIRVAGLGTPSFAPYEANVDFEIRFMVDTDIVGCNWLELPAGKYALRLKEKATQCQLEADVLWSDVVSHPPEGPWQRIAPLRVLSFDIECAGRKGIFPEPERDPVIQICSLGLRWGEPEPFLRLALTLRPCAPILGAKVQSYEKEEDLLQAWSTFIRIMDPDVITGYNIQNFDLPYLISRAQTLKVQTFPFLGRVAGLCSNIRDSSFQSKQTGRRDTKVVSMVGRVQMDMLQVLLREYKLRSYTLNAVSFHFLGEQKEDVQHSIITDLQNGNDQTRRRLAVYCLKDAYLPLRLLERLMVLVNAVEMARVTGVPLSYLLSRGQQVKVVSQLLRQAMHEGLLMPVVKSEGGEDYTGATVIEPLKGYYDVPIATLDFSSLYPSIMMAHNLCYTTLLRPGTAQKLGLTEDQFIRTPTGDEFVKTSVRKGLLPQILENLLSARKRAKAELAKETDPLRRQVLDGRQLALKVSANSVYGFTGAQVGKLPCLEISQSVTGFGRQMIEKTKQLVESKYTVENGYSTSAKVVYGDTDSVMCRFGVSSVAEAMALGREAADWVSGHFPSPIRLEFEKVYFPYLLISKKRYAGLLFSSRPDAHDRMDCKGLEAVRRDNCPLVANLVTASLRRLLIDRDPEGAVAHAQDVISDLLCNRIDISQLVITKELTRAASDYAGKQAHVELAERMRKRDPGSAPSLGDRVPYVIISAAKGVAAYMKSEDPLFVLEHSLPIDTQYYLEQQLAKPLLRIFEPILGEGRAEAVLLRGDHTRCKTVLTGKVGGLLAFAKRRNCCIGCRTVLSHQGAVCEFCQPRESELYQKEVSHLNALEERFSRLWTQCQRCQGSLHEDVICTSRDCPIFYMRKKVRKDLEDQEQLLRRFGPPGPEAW
T1 sequence (P49005 whole entry partner): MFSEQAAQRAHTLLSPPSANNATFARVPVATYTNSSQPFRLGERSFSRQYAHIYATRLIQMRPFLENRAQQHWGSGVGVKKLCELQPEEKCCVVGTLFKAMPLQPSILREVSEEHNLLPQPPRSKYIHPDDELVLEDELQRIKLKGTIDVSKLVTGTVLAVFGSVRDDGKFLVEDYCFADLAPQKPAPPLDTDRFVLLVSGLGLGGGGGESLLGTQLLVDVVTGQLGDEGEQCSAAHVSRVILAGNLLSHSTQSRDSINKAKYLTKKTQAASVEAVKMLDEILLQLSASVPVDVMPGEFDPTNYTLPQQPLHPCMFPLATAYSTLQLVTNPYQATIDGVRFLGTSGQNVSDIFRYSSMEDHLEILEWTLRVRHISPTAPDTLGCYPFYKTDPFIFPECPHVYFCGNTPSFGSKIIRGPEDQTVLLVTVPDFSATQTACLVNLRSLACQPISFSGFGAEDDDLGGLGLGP
T1 sequence (Q15054 2-466 partner): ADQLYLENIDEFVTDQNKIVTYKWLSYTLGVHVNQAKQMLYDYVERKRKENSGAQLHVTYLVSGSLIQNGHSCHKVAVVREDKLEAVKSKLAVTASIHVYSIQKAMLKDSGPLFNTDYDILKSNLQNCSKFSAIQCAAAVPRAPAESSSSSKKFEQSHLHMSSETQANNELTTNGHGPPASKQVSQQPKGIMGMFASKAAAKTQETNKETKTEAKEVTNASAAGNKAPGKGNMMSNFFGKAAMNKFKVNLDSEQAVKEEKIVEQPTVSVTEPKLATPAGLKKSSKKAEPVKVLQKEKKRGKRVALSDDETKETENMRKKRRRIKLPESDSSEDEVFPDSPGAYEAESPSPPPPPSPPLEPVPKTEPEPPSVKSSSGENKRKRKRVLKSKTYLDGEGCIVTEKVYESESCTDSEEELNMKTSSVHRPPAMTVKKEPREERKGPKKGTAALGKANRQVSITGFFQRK
T1 sequence (Q9HCU8 whole entry partner): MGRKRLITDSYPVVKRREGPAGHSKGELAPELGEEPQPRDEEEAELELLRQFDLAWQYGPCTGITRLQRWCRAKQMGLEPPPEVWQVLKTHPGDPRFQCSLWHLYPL
T1 sequence (P12004 whole entry partner): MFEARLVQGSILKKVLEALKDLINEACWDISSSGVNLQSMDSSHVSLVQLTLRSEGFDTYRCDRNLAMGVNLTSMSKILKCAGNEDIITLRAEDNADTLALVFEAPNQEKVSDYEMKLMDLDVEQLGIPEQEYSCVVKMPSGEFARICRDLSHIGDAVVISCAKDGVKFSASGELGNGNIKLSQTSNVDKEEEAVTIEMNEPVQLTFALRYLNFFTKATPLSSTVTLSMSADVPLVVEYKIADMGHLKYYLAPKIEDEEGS

## Nc1nc2c(ncn2[C@H]2C[C@H](O)[C@@H](COP(=O)(O)OP(=O)(O)OP(=O)(O)O)O2)c(=S)[nH]1 [6-thio-dGTP]
  primer extension by reconstituted Pol δ holoenzyme with 6-thio-dGTP (9.7 μM) rep: The substitution of 6-thio-dGTP for dGTP did not significantly alter primer extension
